Values of other authors as cited in patent US9915714B2, “MSC-SELMQC method for simultaneous mapping of polyunsaturated fatty acids, lactate and choline in high fat tissues” (University of Pittsburgh—Of the Commonwealth System of …, priority 2007, dated 2018).

System: RIF-1 tumors
Conditions: following therapeutic intervention, 300 mg/kg; correlates with increases in tumor perfusion and permeability (Gd-DTPA uptake curves)

Q: Which “lactate levels in RIF-1 tumors” value does the source give for O=P1(N(CCCl)CCCl)NCCCO1 (stereo not shown) [cyclophosphamide] here?
A: The value was “decrease”.
